Where two headings read alike, the source gives them in different places.
Assays:
[1] = test system: aCD3/aCD28-stimulated human PBMCs; test: Cytokine production in aCD3/aCD28 stimulated human PBMCs; type: cell-based; conditions: PBMC, 18 h
Method in brief: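 Ficoll-isolated human PBMCs at 1e6 cells/mL in X-Vivo15, stimulated with soluble anti-CD3/CD28 (OKT3 and 28.2, 1 μg/mL each) plus compound for 18 h at 37° C. Supernatant cytokines quantified by MSD or HTRF.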

[2] = test system: aCD3/aCD28-stimulated human CD4+-T-cells; test: IL-2 production and activation markers in aCD3/aCD28 stimulated isolated human CD4+-T-cells; type: cell-based; conditions: IL-2 production at 3 μM compound
Method in brief: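 CD4+ T cells isolated from buffy-coat PBMCs by microbeads were plated in Xvivo medium (1.5*10^5 cells/well) and stimulated with anti-CD3/28 mAbs plus compound. IL-2 measured by ELISA in supernatants at 24 h or 48 h; CD25 and proliferation by flow cytometry, CD69 at 24 h. Activity classes based on IL-2 at 3 μM compound.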

[3] = enhancement of IFN-γ production, read-out: Activity Class IFN-γ
[4] = enhancement of IL-2 production, read-out: Activity Class IL-2

Row | SMILES | EC50 [1, 3] [µM] | EC50 [1, 4] [µM] | Activity Class CD4+ [2]
1 | CCCCNC(=O)c1cc2c(cc1F)SC[C@H](N)C(=O)N2Cc1ccc(OC(F)(F)F)cc1.Cl [Example 5, (3R)-3-amino-N-butyl-8-fluoro-4-oxo-5-{[4-(trifluoromethoxy)phenyl]methyl}-2,3,4,5-tetrahydro-1,5-benzothiazepine-7-carboxamide hydrochloride] | 1.58 to 5.01 | > 5.01 | B (IL-2 production at 3 μM compound concentration between 2-10 ng/mL)
2 | Cl.N[C@H]1CSc2ccc(C(=O)NCc3ccccc3)cc2N(Cc2ccc(OC(F)(F)F)cc2)C1=O [Example 6, (3R)-3-amino-N-benzyl-4-oxo-5-{[4-(trifluoromethoxy)phenyl]methyl}-2,3,4,5-tetrahydro-1,5-benzothiazepine-7-carboxamide hydrochloride] | < 1.58 | 1.58 to 5.01 | B (IL-2 production at 3 μM compound concentration between 2-10 ng/mL)
3 | COc1ccc(CNC(=O)c2ccc3c(c2)N(Cc2ccc(OC(F)(F)F)cc2)C(=O)[C@@H](N)CS3)cc1.Cl [Example 7, (3R)-3-amino-N-[(4-methoxyphenyl)methyl]-4-oxo-5-{[4-(trifluoromethoxy)-phenyl]methyl}-2,3,4,5-tetrahydro-1,5-benzothiazepine-7-carboxamide hydrochloride] | < 1.58 | 1.58 to 5.01 | B (IL-2 production at 3 μM compound concentration between 2-10 ng/mL)
4 | CCCCNC(=O)c1ccc2c(c1)N(Cc1cccc(OC(F)(F)F)c1)C(=O)[C@@H](N)CS2.Cl [Example 9, (3R)-3-amino-N-butyl-4-oxo-5-{[3-(trifluoromethoxy)phenyl]methyl}-2,3,4,5-tetrahydro-1,5-benzothiazepine-7-carboxamide hydrochloride] | 1.58 to 5.01 | > 5.01 | C (IL-2 production at 3 μM compound concentration between 2-fold increase as compared to mean IL-2 production of stimulated cells in the absence of compounds and <2 ng/mL)
5 | CCCCNC(=O)c1ccc2c(c1)N(Cc1ccc(Cl)cc1)C(=O)[C@@H](N)CS2.Cl [Example 10, (3R)-3-amino-N-butyl-5-[(4-chlorophenyl)methyl]-4-oxo-2,3,4,5-tetrahydro-1,5-benzothiazepine-7-carboxamide hydrochloride] | 1.58 to 5.01 | > 5.01 | C (IL-2 production at 3 μM compound concentration between 2-fold increase as compared to mean IL-2 production of stimulated cells in the absence of compounds and <2 ng/mL)
6 | Cl.N[C@H]1CSc2ccc(C(=O)NCc3ccc(N4CCOCC4)cc3)cc2N(Cc2ccc(OC(F)(F)F)cc2)C1=O [Example 11, (3R)-3-amino-N-{[4-(morpholin-4-yl)phenyl]methyl}-4-oxo-5-{[4-(trifluoromethoxy)-phenyl]methyl}-2,3,4,5-tetrahydro-1,5-benzothiazepine-7-carboxamide hydrochloride] | > 5.01 | > 5.01 | C (IL-2 production at 3 μM compound concentration between 2-fold increase as compared to mean IL-2 production of stimulated cells in the absence of compounds and <2 ng/mL)
7 | CC(C)(C)C(=O)NCCCNC(=O)c1ccc2c(c1)N(Cc1ccc(OC(F)(F)F)cc1)C(=O)[C@@H](N)CS2.Cl [Example 12, N-(3-{[(3R)-3-amino-4-oxo-5-{[4-(trifluoromethoxy)phenyl]methyl}-2,3,4,5-tetrahydro-1,5-benzothiazepin-7-yl]formamido}propyl)-2,2-dimethylpropanamide hydrochloride] | > 5.01 | > 5.01 | C (IL-2 production at 3 μM compound concentration between 2-fold increase as compared to mean IL-2 production of stimulated cells in the absence of compounds and <2 ng/mL)
8 | CNC(=O)c1ccc2c(c1)N(Cc1ccc(OC(F)(F)F)cc1)C(=O)[C@@H](N)CS2.Cl [Example 17, (3R)-3-amino-N-methyl-4-oxo-5-{[4-(trifluoromethoxy)phenyl]methyl}-2,3,4,5-tetrahydro-1,5-benzothiazepine-7-carboxamide hydrochloride] |  | > 5.01 | C (IL-2 production at 3 μM compound concentration between 2-fold increase as compared to mean IL-2 production of stimulated cells in the absence of compounds and <2 ng/mL)
9 | CCNC(=O)c1ccc2c(c1)N(Cc1ccc(OC(F)(F)F)cc1)C(=O)[C@@H](N)CS2.Cl [Example 18, (3R)-3-amino-N-ethyl-4-oxo-5-{[4-(trifluoromethoxy)phenyl]methyl}-2,3,4,5-tetrahydro-1,5-benzothiazepine-7-carboxamide hydrochloride] | < 1.58 | 1.58 to 5.01 | C (IL-2 production at 3 μM compound concentration between 2-fold increase as compared to mean IL-2 production of stimulated cells in the absence of compounds and <2 ng/mL)
10 | CCCCNC(=O)c1ccc2c(c1)N(Cc1ccc(C#N)cc1)C(=O)[C@@H](N)CS2.Cl [Example 21, (3R)-3-amino-N-butyl-5-[(4-cyanophenyl)methyl]-4-oxo-2,3,4,5-tetrahydro-1,5-benzothiazepine-7-carboxamide hydrochloride] | < 1.58 | > 5.01 | C (IL-2 production at 3 μM compound concentration between 2-fold increase as compared to mean IL-2 production of stimulated cells in the absence of compounds and <2 ng/mL)
11 | Cl.N[C@H]1CSc2ccc(C(=O)NCCCC(F)(F)F)cc2N(Cc2ccc(Cl)cc2)C1=O [Example 22, (3R)-3-amino-5-[(4-chlorophenyl)methyl]-4-oxo-N-(4,4,4-trifluorobutyl)-2,3,4,5-tetrahydro-1,5-benzothiazepine-7-carboxamide hydrochloride] | 1.58 to 5.01 | 1.58 to 5.01 | B (IL-2 production at 3 μM compound concentration between 2-10 ng/mL)
12 | Cl.N[C@H]1CSc2ccc(C(=O)NCC3CCOCC3)cc2N(Cc2ccc(Cl)cc2)C1=O [Example 23, (3R)-3-amino-5-[(4-chlorophenyl)methyl]-N-(oxan-4-ylmethyl)-4-oxo-2,3,4,5-tetrahydro-1,5-benzothiazepine-7-carboxamide hydrochloride] | 1.58 to 5.01 | > 5.01 | B (IL-2 production at 3 μM compound concentration between 2-10 ng/mL)
13 | Cl.Cl.N[C@H]1CSc2ccc(C(=O)Nc3cccnc3)cc2N(Cc2ccc(OC(F)(F)F)cc2)C1=O [Example 25, (3R)-3-amino-4-oxo-N-(pyridin-3-yl)-5-{[4-(trifluoromethoxy)phenyl]methyl}-2,3,4,5-tetrahydro-1,5-benzothiazepine-7-carboxamide dihydrochloride] | > 5.01 | 1.58 to 5.01 | C (IL-2 production at 3 μM compound concentration between 2-fold increase as compared to mean IL-2 production of stimulated cells in the absence of compounds and <2 ng/mL)
14 | Cl.N[C@H]1CSc2ccc(C(=O)NCc3ccc(F)cc3)cc2N(Cc2ccc(Cl)cc2)C1=O [Example 26, (3R)-3-amino-5-[(4-chlorophenyl)methyl]-N-[(4-fluorophenyl)methyl]-4-oxo-2,3,4,5-tetrahydro-1,5-benzothiazepine-7-carboxamide hydrochloride] | < 1.58 | 1.58 to 5.01 | B (IL-2 production at 3 μM compound concentration between 2-10 ng/mL)
15 | COc1ccc([C@@H](C)NC(=O)c2ccc3c(c2)N(Cc2ccc(Cl)cc2)C(=O)[C@@H](N)CS3)cc1 [Example 27, (3R)-3-amino-5-[(4-chlorophenyl)methyl]-N-[(1R)-1-(4-methoxyphenyl)ethyl]-4-oxo-2,3,4,5-tetrahydro-1,5-benzothiazepine-7-carboxamide] | < 1.58 | 1.58 to 5.01 | B (IL-2 production at 3 μM compound concentration between 2-10 ng/mL)
16 | Cl.N[C@H]1CSc2ccc(C(=O)NCC3CCCOC3)cc2N(Cc2ccc(Cl)cc2)C1=O (stereo partly drawn) [Example 28, (3R)-3-amino-5-[(4-chlorophenyl)methyl]-N-(oxan-3-ylmethyl)-4-oxo-2,3,4,5-tetrahydro-1,5-benzothiazepine-7-carboxamide hydrochloride] | 1.58 to 5.01 | > 5.01 | C (IL-2 production at 3 μM compound concentration between 2-fold increase as compared to mean IL-2 production of stimulated cells in the absence of compounds and <2 ng/mL)
17 | Cl.N[C@H]1CSc2ccc(C(=O)NCCCC(F)(F)F)cc2N(Cc2ccc(OC(F)(F)F)cc2)C1=O [Example 29, (3R)-3-amino-4-oxo-N-(4,4,4-trifluorobutyl)-5-{[4-(trifluoromethoxy)phenyl]methyl}-2,3,4,5-tetrahydro-1,5-benzothiazepine-7-carboxamide hydrochloride] | < 1.58 | < 1.58 | B (IL-2 production at 3 μM compound concentration between 2-10 ng/mL)
18 | Cl.N[C@H]1CSc2ccc(C(=O)NCC3CCOCC3)cc2N(Cc2ccc(OC(F)(F)F)cc2)C1=O [Example 30, (3R)-3-amino-N-(oxan-4-ylmethyl)-4-oxo-5-{[4-(trifluoromethoxy)phenyl]methyl}-2,3,4,5-tetrahydro-1,5-benzothiazepine-7-carboxamide hydrochloride] | > 5.01 | 1.58 to 5.01 | B (IL-2 production at 3 μM compound concentration between 2-10 ng/mL)
19 | Cl.N[C@H]1CSc2ccc(C(=O)NCc3ccc(F)cc3)cc2N(Cc2ccc(OC(F)(F)F)cc2)C1=O [Example 31, (3R)-3-amino-N-[(4-fluorophenyl)methyl]-4-oxo-5-{[4-(trifluoromethoxy)phenyl]-methyl}-2,3,4,5-tetrahydro-1,5-benzothiazepine-7-carboxamide hydrochloride] | < 1.58 | < 1.58 | B (IL-2 production at 3 μM compound concentration between 2-10 ng/mL)

Source: patent US10472341B2, “Bicyclic tetrahydrothiazepine derivatives useful for the treatment of neoplastic and/or infectious diseases” (APEIRON BIOLOGICS AG, priority 2015, dated 2019)
